Measurements: patent US5369030A, “Method of inducing cellular differentiations and altering cell phenotype using ceramide analogs” (Duke University, priority 1992, dated 1994)
Where two headings read alike, the source gives them in different places.

Legend:
HL-60 cells [1] = assay: HL-60 differentiation, H2O2 generation; format: cell-based, human
Protocol: (§1) Human myelocytic leukemia HL-60 cells (20-45 passages (American Type Culture Collection, Rockville, Md., accession no. CCL 240) were obtained and grown in RPMI 1640 medium (Sigma Chemical Co., St. Louis, Mo.) containing 10% fetal calf serum at 37° C. in 5% CO2 incubator at a cell density of 2×10^5 cells/mi. The cells were washed once with phosphate buffered saline (PBS) and resuspended in serum-free media containing insulin (5 mg/liter) and transferrin (5 mg/liter) for 2-3 hours before treatment with various compounds.
Therefore, 3 μM C14-L-t-APPD was applied to HL-60 cells either alone or in combination with subthreshold levels (0.3 nM) of 1,25-dihydroxyvitamin D3 (D3), and cell differentiation was determined at 60 and 108 hours following treatment by quantitating […] generation, a marker of HL-60 differentiation. Subthreshold levels of D3 refers to levels of D3 that are too low to induce differentiation of HL60 cells.
H2 O2 production was quantitated as described in Goodwin, B. J. and Weinberg, J. B., J. Clin. Invest. 70:699-706 (1982) and Pick, E. and Mizel, D. J. Immunol. Methods 46: 211-226 (1981). For comparison, HL60 cell differentiation obtained with 2 μM C2-ceramide alone and 0.3 nM vitamin D3 are were also determined.

[2] = test system: sphingomyelin in HL-60 cells; details: previous study, Okazaki, T., et al.; cited from earlier work
HL-60 cells [3] = assay: HL-60 cell growth/proliferation, cells counted with a hemocytometer; format: cell-based, human; details: for cell density: starting density 2×10^5 cells/ml; for IC50 / activity at 1 µM / activity at 2 µM / activity at 3 µM / activity at 4 µM / activity at 5 µM: Homo sapiens; for IC50: read-out: IC50%
Protocol: as §1
HL-60 cells were treated with 3 μM of Cn-L-t-APPD with acyl chain lengths of C6, C8, C10, C12, C14, C16, and C18 (m=4, 6, 8, 10, 12, 14 and 16) in fresh ehtanol solution or with an ethanol vehicle and cell growth was determined following three days of treatment. Cell growth was quantified using a hemocytometer. Cell viability was judged by the ability to exclude trypan blue dye. Viability was always more than 80% unless otherwise described.
HL-60 cells (starting cell density of 2×10^5 cells/ml) were treated with different concentrations of C14-L-t-APPD and cells were counted following 24 and 72 hours of treatment. The results are representative of three experiments. A 1μM dose of C14-L-t-APPD had little or no effect on cell growth at 24 or 72 hours (approximately 105% and 130% of control, respectively). A 2μM dose inhibited cell growth to approximately 65% of the control at both 24 and 72 hours. […] The IC50% was approximately 2 μM (10 fmol/cell). IC50% is the concentration of test compound that causes 50% inhibition of cell growth in comparison with controls. Thus, similar to results with C2-ceramide, C14-APPD inhibited cell proliferation at different durations of treatment.
HL-60 cells (starting cell density of 2×10^5 cells/ml) were treated with 3 μM Cn-L-t-APPD derivatives with N-acyl chain lengths of C6, C8, C10, C12, C14, C16, and C18 (m=4,6,8,10, 12, 14, and 16) and cells were counted at 0, 12, 36, 60, 84 and 108 hours post treatment. The results are representative of 3 experiments.
N-acyl derivatives of 2-amino-1-(4'-nitrophenyl)-1,3-propanediol (Cn-D-t-ANPPD) were tested to determine the effects of chain length on HL-60 cell growth as described in Examples 3 A. HL-60 cells (at a starting cell density of 2×10^5 cells/ml) were treated with 3 μM of the diff analogs (C6, C8, C10, C12, C14, C16 and C18) of Cn-D-t-ANPPD, and cell growth was determined at three days. The control received no Cn-D-t-ANPPD. Treatment of HL-60 cells with C2-ceramide is included for comparison.
HL-60 cells were treated with the indicated concentrations and cell growth was determined following three days of treatment as described in Example 3B.
The suitability of phenylaminopropanediol derivatives as analogs of ceramide allowed further investigation of the structural requirements for ceramide-mediated biology. For these experiments, C14 (N-myristoyl) derivatives of different phenylaminoalcohols were synthesized and examined for their biologic activity. HL-60 cells (starting cell density of 2×10^5 cells/ml) were treated with 3 μM of C14 derivatives C14-L-t-APPD, C14-D-t-ANPPD, C14-D-e-APP-1, C14-L-e-APP-1, C14-APP-3 and C14-D-APP3. The structures of these compounds are provided in Table I. Cell growth was determined at 3 days as described in Example 3A. The results shown are averages of two determinations, and are representative of five different experiments.
and C14-L-e-APP-1 HL-60 cells were treated as described in Example 3B. growth was determined after 3 days of treatment.

HL-60 cells [4] = assay: HL-60 differentiation, reduction of Nitro blue tetrazolium (NBT); format: cell-based, human; details: 3 μM, three days; for cells acquiring the ability to reduce NBT: control cells 10%
Protocol: as §1
HL-60 cells were treated with 3 μM of C14-D-e-APP-1 or 3 μM C14-L-e-APP-1 for three days in accordance with the procedure described in Example 3D. Cell differentiation was determined by the ability of differentiated cells to reduce Nitro blue tetrazolium (NBT) as described in Okazaki, T. et. al., J. Biol. Chem. 265:15823-15831 (1990).

HL-60 cells [5] = assay: Uptake of [3H]-labeled compounds; format: cell-based, human; details: [3H]-labeled compound
Protocol: (1R, 2S) 2-(N-[^3 H]-myristoylamino)-1-phenyl-1propanol ([^3 H] C14-L-e-APP-1) and (1S, 2R) 2-(N-[^3 H]-myristoylamino)-1-phenyl-1-propanol ([^3 H]C14-D-e-APP-1) were prepared following the general procedures of Example 1 for synthesis of N-acyl-amino alcohols using [^3 H]-myristoyl chloride. Specific activity was ~3×10^3 cpms/nmol. [^3 H] myristoyl chloride was made from 9,10-[^3 H]-myristic acid and oxalyl chloride in dry benzene.
In studies using [^3 H]-labeled C14-D-e-APP-1 and C14-L-e-APP-1, uptake of the two compounds was nearly identical with 21% of [3 H]-C14-D-e-APP-1 taken up and 20% of [3 H]-C14-L-e-APP-1 taken up.

HL-60 cells [6] = details: Okazaki et al.; cited from earlier work
HL-60 cells [7] = details: Okazaki et al.; cited from earlier work; remark: listed apart in the source
[8] = Example 5, 3 μM C14 derivatives, 3 days
[9] = HL-60, 72 h, Example 5, Table IV, 3 days, read-out: CELL GROWTH (% OF CONTROL)
[10] = HL-60, 72 h, Example 5, Table IV, 3 μM, 3 days, read-out: CELL GROWTH (% OF CONTROL)
[11] = HL-60, 24 h, Example 3B, 24 hours, read-out: cell growth, % of control
[12] = HL-60, 72 h, Example 3B, 72 hours, read-out: cell growth, % of control

## C=C1/C(=C\C=C2/CCC[C@]3(C)[C@@H]([C@H](C)CCCC(C)(C)O)CC[C@@H]23)C[C@@H](O)C[C@@H]1O [1,25-dihydroxyvitamin D3, reference compound]
HL-60 cells [1]; 0.3 nM 1,25-dihydroxyvitamin D3, 60 hours
  H2O2 generation: approximately 0.4 nmol H2O2 /10^5 cells
HL-60 cells [1]; 0.3 nM 1,25-dihydroxyvitamin D3, 108 hours
  H2O2 generation: ~0.2 nmol/10^5 cells
[2]
  hydrolysis of sphingomyelin (in words): caused hydrolysis of sphingomyelin in HL-60 cells

## CCCCCCCCCCCCC/C=C/[C@@H](O)[C@H](CO)NC(C)=O [C2-ceramide, N-acetyl-C18-sphingosine, reference compound]
HL-60 cells [1]; 2 μM C2-ceramide alone, 60 hours
  H2O2 generation: approximately 0.3 nmol H2O2 /10^5 cells
HL-60 cells [1]; 2 μM C2-ceramide alone, 108 hours
  H2O2 generation: approximately 0.3 nmol H2O2 /10^5 cells
HL-60 cells [1]; 2 μM C2-ceramide in combination with 1,25-dihydroxyvitamin D3
  H2O2 generation, combination: approximately 0.9 nmol/10^5 cells
HL-60 cells [3]; Example 3C, C2-ceramide, concentration not given, 108 hours
  cell density: 200000 mL⁻¹
HL-60 cells [3]; Example 4A, Table II, 3 μM Cn-D-t-ANPPD (C2-ceramide concentration not given), three days
  CELL GROWTH (% OF CONTROL): 20 % OF CONTROL
HL-60 cells [3]; [8]
  cell growth, % of control: 20%

## CCCCCCCCCCCCCC(=O)N[C@H](C)[C@@H](O)c1ccccc1 [C14-D-e-APP-1]
HL-60 cells [3]; Example 5, Table IV experiment, HL-60 growth, 3 days
  IC50% per cell number: 125 fmol/10^5 cells
HL-60 cells [3]; [8]
  cell growth, % of control: approximately 15%
HL-60 cells [3]; Example 5, 3 μM, 3 days, inhibition of cell growth
  activity relative to reference (in words): as effective as C2-ceramide
HL-60 cells [3]; 72 h, Example 5, Table IV experiment, HL-60 growth, 3 days
  IC50: 2.5 µM
HL-60 cells [3]; [9]
  activity at 1 µM: 100%
  activity at 2 µM: 71%
  activity at 4 µM: 20%
  activity at 5 µM: 10%
HL-60 cells [3]; [10]
  activity at 3 µM: 45%
HL-60 cells [4]
  cells acquiring the ability to reduce NBT: 42%

## CCCCCCCCCCCCCC(=O)N[C@@H](C)[C@H](O)c1ccccc1 [C14-L-e-APP-1]
HL-60 cells [3]; Example 5, Table IV experiment, 1-5 μM, 3 days
  inhibition of HL-60 cell growth (in words): no activity
HL-60 cells [3]; [8]
  cell growth, % of control: 87%
HL-60 cells [3]; [9]
  activity at 1 µM: 101%
  activity at 2 µM: 100%
  activity at 4 µM: 100%
  activity at 5 µM: 99%
HL-60 cells [3]; [10]
  activity at 3 µM: 99%
HL-60 cells [4]; NBT reduction
  level of differentiation (in words): little activity over control
HL-60 cells [4]
  cells acquiring the ability to reduce NBT: 12%

## CCCCCCCCCCCCCC(=O)N[C@@H](CO)[C@@H](O)c1ccccc1 [C14-L-t-APPD, N-MYRISTOYL-L-THREO-2-AMINO-1-PHENYL-1,3-PROPANDIOL]
HL-60 cells [1]; 3 μM C14-L-t-APPD + 0.3 nM 1,25-dihydroxyvitamin D3
  effect of combination on cell differentiation (in words): synergistic effect on cell differentiation
HL-60 cells [1]; 3 μM C14-L-t-APPD + 0.3 nM 1,25-dihydroxyvitamin D3, 60 hours
  H2O2 generation, combination: approximately 1.1 nmol H2O2 /10^5 cells
HL-60 cells [1]; 3 μM C14-L-t-APPD + 0.3 nM 1,25-dihydroxyvitamin D3, 108 hours
  H2O2 generation, combination: ~1.0 nmol H2O2 /10^5 cells
HL-60 cells [1]; 3 μM C14-L-t-APPD alone, 60 hours
  H2O2 generation: approximately 0.3 nmol/10^5 cells
HL-60 cells [1]; 3 μM C14-L-t-APPD alone, 108 hours
  H2O2 generation: ~0.5 nmol/10^5 cells
HL-60 cells [1]; 3 μM C14-L-t-APPD vs 2 μM C2-ceramide
  effect on differentiation relative to C2-ceramide (in words): nearly identical to those of 2 μM C2-ceramide
HL-60 cells [3]; Example 3A, 3 μM Cn-L-t-APPD, three days
  cell growth, % of control: ~15%
HL-60 cells [3]; Example 3B, 50% inhibition of cell growth, 2×10^5 cells/ml
  IC50% per cell: approximately 10 fmol/cell
HL-60 cells [3]; Example 3C, 3 μM
  potency relative to C2-ceramide (in words): equally potent to C2-ceramide
HL-60 cells [3]; Example 3C, 3 μM, 84 hours
  cell density: 100000 mL⁻¹
HL-60 cells [3]; Example 3C, 3 μM, 108 hours
  cell density: 200000 mL⁻¹
HL-60 cells [3]; Example 3C, 3 μM, time course to 108 hours
  inhibition of cell growth (in words): able to inhibit cell growth by significant amounts
HL-60 cells [3]; [11]
  activity at 1 µM: ~105%
  activity at 2 µM: ~65%
  activity at 4 µM: < 10%
HL-60 cells [3]; HL-60, 24 h, Example 3B, 3 μM, 24 hours, read-out: cell growth, % of control
  activity at 3 µM: < 10%
HL-60 cells [3]; [12]
  activity at 1 µM: ~130%
  activity at 2 µM: ~65%
  activity at 4 µM: < 10%
HL-60 cells [3]; HL-60, 72 h, Example 3B, 3 μM, 72 hours, read-out: cell growth, % of control
  activity at 3 µM: < 10%
HL-60 cells [3]; HL-60, Example 3B, 50% inhibition of cell growth, 2×10^5 cells/ml, 24 and 72 hours
  IC50: ~2 µM

## [3H]C(CCCC)C([3H])CCCCCCCC(=O)N[C@H](C)[C@@H](O)c1ccccc1 (stereo partly drawn) [[3 H]-C14-D-e-APP-1, (1S, 2R) 2-(N-[^3 H]-myristoylamino)-1-phenyl-1-propanol]
HL-60 cells [5]
  uptake: 21%

## [3H]C(CCCC)C([3H])CCCCCCCC(=O)N[C@@H](C)[C@H](O)c1ccccc1 (stereo partly drawn) [[3 H]-C14-L-e-APP-1, (1R, 2S) 2-(N-[^3 H]-myristoylamino)-1-phenyl-1propanol]
HL-60 cells [5]
  uptake: 20%

## CCCCCCCCCCCCC/C=C/[C@@H](O)[C@@H](N)CO [sphingosine, Sphingosine]
HL-60 cells [6]
  HL-60 cell differentiation (in words): do not mimic the effects of ceramide on cell differentiation
HL-60 cells [7]
  HL-60 cell growth (in words): inhibit HL-60 cell growth
